Laboratory results as given in article PMC4449299 (Developmental cell, 2015).
Blank lines part the entries; values can stand above or below the molecule they belong to.

Columns and labels:
[1] = target: T1, AHD (anillin-homology domain of anillin, 712-981) (Homo sapiens, UniProt Q9NQW6); assay: SPR, L1 chip, liposomes; type: binding; conditions: PI(4,5)P2 vesicles; room temperature
T1 sequence (Q9NQW6 712-981): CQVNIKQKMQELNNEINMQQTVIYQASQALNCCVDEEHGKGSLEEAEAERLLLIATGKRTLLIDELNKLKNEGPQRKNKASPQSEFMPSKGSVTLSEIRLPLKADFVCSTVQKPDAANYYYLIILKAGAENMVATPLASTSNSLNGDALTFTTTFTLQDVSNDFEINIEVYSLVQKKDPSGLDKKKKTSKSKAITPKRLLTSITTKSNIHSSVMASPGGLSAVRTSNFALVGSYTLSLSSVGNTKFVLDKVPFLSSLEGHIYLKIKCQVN

AHD-PH + RhoA* = AHD-PH + RhoA* (Homo sapiens, UniProt Q9NQW6); assay: SPR, L1 chip, liposomes; type: binding; conditions: PI(4,5)P2 vesicles; with lipid-modified RhoA; room temperature
[2] = target: T2, Mid1 (C-terminal domain, 579-920) (Schizosaccharomyces pombe, UniProt P78953); assay: SPR, L1 chip, liposomes; type: binding; conditions: PI(4,5)P2 vesicles; dimeric Mid1; given as 'up to'; room temperature
T2 sequence (P78953 579-920): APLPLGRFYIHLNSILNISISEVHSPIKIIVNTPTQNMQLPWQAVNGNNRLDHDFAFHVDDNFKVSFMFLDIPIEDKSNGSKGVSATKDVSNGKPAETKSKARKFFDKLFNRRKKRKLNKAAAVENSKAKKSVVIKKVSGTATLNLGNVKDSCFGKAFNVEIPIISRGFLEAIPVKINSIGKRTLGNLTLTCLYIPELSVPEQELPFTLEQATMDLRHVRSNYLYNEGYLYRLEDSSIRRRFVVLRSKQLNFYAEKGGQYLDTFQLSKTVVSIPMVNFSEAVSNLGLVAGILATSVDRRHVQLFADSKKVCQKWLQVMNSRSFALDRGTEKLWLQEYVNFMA

RhoA(181)-Q63L = RhoA(181)-Q63L (UniProt P61586 1-181, Q63L); assay: ITC
RhoA(181)-Q63L, sequence (P61586 1-181 Q63L): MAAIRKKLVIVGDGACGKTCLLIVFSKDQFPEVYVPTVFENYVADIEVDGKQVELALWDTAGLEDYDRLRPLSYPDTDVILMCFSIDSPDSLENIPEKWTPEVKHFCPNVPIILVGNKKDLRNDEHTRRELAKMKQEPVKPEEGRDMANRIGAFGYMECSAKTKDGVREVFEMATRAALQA

AHD-PH + RhoA*, sequence (Q9NQW6 712-1124): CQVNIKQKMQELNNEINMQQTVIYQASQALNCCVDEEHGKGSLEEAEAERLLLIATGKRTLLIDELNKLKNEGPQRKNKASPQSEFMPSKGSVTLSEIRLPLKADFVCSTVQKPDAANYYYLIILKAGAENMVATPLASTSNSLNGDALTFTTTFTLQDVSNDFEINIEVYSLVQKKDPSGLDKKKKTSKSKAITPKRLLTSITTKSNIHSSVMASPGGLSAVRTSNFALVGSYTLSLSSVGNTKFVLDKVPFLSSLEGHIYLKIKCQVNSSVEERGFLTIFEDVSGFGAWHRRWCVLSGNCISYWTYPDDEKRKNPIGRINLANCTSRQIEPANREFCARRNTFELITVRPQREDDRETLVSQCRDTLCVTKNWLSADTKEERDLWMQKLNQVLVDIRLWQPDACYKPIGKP
AHD-PH + RhoA*, sequence (P61586 1-190 partner): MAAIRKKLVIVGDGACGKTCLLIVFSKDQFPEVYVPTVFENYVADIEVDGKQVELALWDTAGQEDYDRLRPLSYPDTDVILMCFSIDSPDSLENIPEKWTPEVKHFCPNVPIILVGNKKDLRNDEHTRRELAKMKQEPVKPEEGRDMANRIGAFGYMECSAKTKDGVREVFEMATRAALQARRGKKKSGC

Kd [1]: ~14 µM
Kd (AHD-PH + RhoA*): ~0.28 µM
Kd [2]: 0.12 µM
Molecule: PI(4,5)P2

dH (RhoA(181)-Q63L): 16.6 kJ/mol
B1: anillin-homology domain (AHD) of human anillin (712–981) (domain or fragment, UniProt Q9NQW6 712-981, looked up)
chain: T1 sequence (Q9NQW6 712-981)
